Laboratory results: US20100105103A1, “ALCOHOL TOLERANT ESCHERICHIA COLI AND METHODS OF PREPARATION THEREOF” (NATIONAL TAIWAN UNIVERSITY, priority 2008, published 2010)

Assays:
[1] = tested on: E. coli wild-type strain BW25113; settings: wild type E. coli BW25113, LB medium, OD600
Description: E. coli wild-type strain BW25113 was cultured overnight and then inoculated into a fresh LB medium containing 0-10% (v/v) of 1-butanol. Cells were cultivated with shaking and the optical density at 600 nm was measured every 15 minutes.

[2] = tested on: E. coli JH007 (ydhF- mutant overexpressing PhoH); assay: Growth curve of JH007 strain with various concentrations of alcohols (OD595); format: cell-based, Escherichia coli; settings: for alcohol concentration at which growth of JH007 was inhibited: JH007, IPTG-induced, LB medium, 37° C., OD595
Description: (§1) After 2 h of induction, the cultures were diluted to 0.35 OD595 in a fresh LB medium supplemented with kanamycin and 50 μg/ml of chloraphenicol, with the addition of 0-18% ethanol, 0-5% 1-propanol, 0-5% iso-propanol, 0-7% 1-butanol, and 0-7% iso-butanol in triplicate.
Referring to FIG. 7, cell growth condition of JH007 strain was monitored with OD595 with the changes of cell turbidities.

[3] = tested on: E. coli JH016 (potG- mutant overexpressing Hmp); assay: Growth curve of JH016 strain with various concentrations of alcohols (OD595); format: cell-based, Escherichia coli; settings: for alcohol concentration at which growth of JH016 was inhibited: JH016, OD595
Description: as §1
(§2) Growth of JH016 was inhibited by 1-butanol at concentrations at least 2.5% (v/v), isobutanol at least 4%, 1-propanol at least 5%, isopropanol at least 5%, or ethanol at least 10%. And the growth of JH017 was inhibited by 1-butanol at concentrations at least 2% (v/v), isobutanol at least 3.5%, 1-propanol at least 5%, isopropanol at least 5%, or ethanol at least 12%. The abovementioned concentration of alcohol would for sure inhibit the growth of wild type E. coli.

[4] = tested on: E. coli JH017 (potG- mutant overexpressing YqhD); assay: Growth curve of JH017 strain with various concentrations of alcohols (OD595); format: cell-based, Escherichia coli
Description: as §1, §2

[5] = tested on: E. coli JH007; settings: JH007, 2% v/v 1-butanol, 4 h, IPTG-induced vs uninduced
Description: These 18 strains were cultivated overnight then inoculated into LB media supplemented with 30 μg/ml of kanamycin and 50 μg/ml of chloraphenicol. IPTG were added into the media at the final concentration of 0.1 mM. […] Cells were incubated at 37° C. with shaking and the optical density was measured at the beginning and after 4 h. The survival rates were calculated using the following formula.
Survival rate=difference of OD595 between mutants with IPTG induced (4 h-0 h)/difference of OD595 between mutants without IPTG induced (4 h-0 h)×100%

[6] = tested on: wild type E. coli; settings: conventional fermentation process; cited from earlier work

## 1-butanol
[1]
  concentration of 1-butanol at which growth was almost completely inhibited: ≥ 1.5 % (v/v)
[2]; JH007
  tolerance of 1-butanol concentration (up to): up to 5 % (v/v)
[2]
  alcohol concentration at which growth of JH007 was inhibited: at least 5 % (v/v)
[3]
  alcohol concentration at which growth of JH016 was inhibited: at least 2.5 % (v/v)
[4]
  alcohol concentration at which growth of JH017 was inhibited: at least 2 % (v/v)
[5]
  1-butanol tolerance (survival rate) relative to control: 5.5 fold
[6]
  concentration of 1-butanol at which growth was inhibited: 1%

## CCCO [1-propanol]
[2]
  alcohol concentration at which growth of JH007 was inhibited: at least 6 % (v/v)

## CCO [ethanol]
[3]; JH016
  tolerance of ethanol concentration (up to): up to 12 % (v/v)
[3]
  alcohol concentration at which growth of JH016 was inhibited: at least 10 % (v/v)
[4]
  alcohol concentration at which growth of JH017 was inhibited: at least 12 % (v/v)

## CC(C)CO [isobutanol]
[2]
  alcohol concentration at which growth of JH007 was inhibited: at least 3.5 % (v/v)
[3]
  alcohol concentration at which growth of JH016 was inhibited: at least 4 % (v/v)
[4]
  alcohol concentration at which growth of JH017 was inhibited: at least 3.5 % (v/v)
